Measured values as given in patent US11472781B2, “2-aminoaryl-5-aryloxazole analogs for the treatment of neurodegenerative diseases” (Southern Research Institute, priority 2018, dated 2022).
Read-outs that look alike come from different tables or passages of the source.

Test system: NF-κB
Assay: High throughput assay for NF-κB reporter activity (luciferase) in stably transfected SH-SY5Y cells
Type: cell-based, human
Conditions: for maximal fold induction: 24 h, read-out: Emax; for EC50: 24 hr
Method: SH-SY5Y human neuroblastoma cell line was obtained from the American Tissue Culture collection (ATCC). A commercially available expression vector containing the NF-kB promoter enhancer region driving the firefly luciferase gene expression and a second plasmid containing the gene conferring resistance to blasticidin were used in a dual transfection approach to obtain a stable cell line. […] Luciferase activity was measured as a reporter of NF-kB activation using the Bright-Glo Luciferase assay kit (Cat. No. E2620, Promega, Madison, Wis.) according to the manufacturer's instructions. Cell viability was measured using the CellTiter-Glo Luminescent Cell Viability assay kit (Cat. No. G7572, Promega, Madison, Wis.) according to the manufacturer's instructions. Briefly, cells were equilibrated at room temperature for 30 min prior to the addition of Bright-Glo to the white opaque plates or CellTiter-Glo to the black clear bottom plates. A volume of assay buffer equal to the volume of cell media was added to each well and incubated for five min to allow complete cell lysis. All procedures were performed in the dark.

EC50 (Homo sapiens, read-out: EC50)	EC50	SMILES	maximal fold induction (Homo sapiens)
> 10000 nM		O=C(O)c1cccc(-c2cnc(Nc3c(F)cc(F)cc3F)o2)c1 [Compound 48]	14.1
	Inactive	O=C(O)c1ccc(-c2cnc(Nc3cccc(F)c3)o2)cc1 [Compound 50]	6.15
	Inactive	O=C(O)c1ccc(-c2cnc(Nc3ccc(F)cc3)o2)cc1 [Compound 51]	4.22
	Inactive	O=C(O)c1ccc(-c2cnc(Nc3c(F)cccc3F)o2)cc1 [Compound 53]	
	Inactive	O=C(O)c1ccccc1-c1cnc(Nc2ccccc2F)o1 [Compound 54]	5.37
	Inactive	O=C(O)c1ccccc1-c1cnc(Nc2cc(F)ccc2F)o1 [Compound 55]	4.46
> 10000 nM		COC(=O)c1cccc(-c2cnc(Nc3c(F)cc(F)cc3F)o2)c1 [Compound 64]	12.3
	Inactive	COC(=O)c1ccc(-c2cnc(Nc3ccc(F)cc3)o2)cc1 [Compound 67]	
> 10000 nM		COC(=O)c1ccc(-c2cnc(Nc3ccc(F)cc3F)o2)cc1 [Compound 68]	4.41
	Inactive	COC(=O)c1ccc(-c2cnc(Nc3cccc(F)c3F)o2)cc1 [Compound 71]	7.24
	Inactive	COC(=O)c1ccc(-c2cnc(Nc3c(F)cc(F)cc3F)o2)cc1 [Compound 72]	3.97
	Inactive	COC(=O)c1ccccc1-c1cnc(Nc2ccccc2F)o1 [Compound 73]	2.37
	Inactive	COC(=O)c1ccccc1-c1cnc(Nc2cccc(F)c2)o1 [Compound 74]	2.37
	Inactive	COC(=O)c1ccccc1-c1cnc(Nc2ccc(F)cc2)o1 [Compound 75]	2.97
	Inactive	COC(=O)c1ccccc1-c1cnc(Nc2ccc(F)cc2F)o1 [Compound 76]	4.45
	Inactive	COC(=O)c1ccccc1-c1cnc(Nc2cc(F)ccc2F)o1 [Compound 77]	2.29
	Inactive	COC(=O)c1ccccc1-c1cnc(Nc2c(F)cccc2F)o1 [Compound 78]	4.36
2510 nM		Fc1ccccc1Nc1nc(-c2ccccn2)no1 [Compound 81, N-(2-fluorophenyl)-3-(pyridin-2-yl)-1,2,4-oxadiazol-5-amine]	14.4
	Inactive	CC(C)N(c1ccc(F)cc1)c1ncc(-c2cccc(C(=O)O)c2)o1 [Compound 83]	4.5
750 nM		O=C(O)c1cccc(-c2cnc(Nc3ccc(Cl)cc3)o2)c1 [Compound 84]	11.3
	Inactive	COC(=O)c1cccc(-c2cnc(Nc3ccc(Cl)cc3)o2)c1 [Compound 85]	5.77
	Inactive	COC(=O)c1cccc(-c2cnc(N(c3ccc(F)cc3)C(C)C)o2)c1 [Compound 86]	2.2
	Inactive	COC(=O)c1cccc(-c2cnc(Nc3ccc(C(F)(F)F)cc3)o2)c1 [Compound 87]	5.29
	Inactive	COC(=O)c1cccc(-c2cnc(Nc3ccc(C#N)cc3)o2)c1 [Compound 88]	3.49
	Inactive	CCCN(c1ccc(F)cc1)c1ncc(-c2cccc(C(=O)OC)c2)o1 [Compound 89]	3
	Inactive	COC(=O)c1cccc(-c2cnc(Nc3ccc(OC)cc3)o2)c1 [Compound 90]	2.47
	Inactive	Fc1ccc(Nc2ncc(-c3cccc(-c4nnn[nH]4)c3)o2)cc1 [Compound 93]	2.59
	Inactive	NCc1cccc(-c2cnc(Nc3ccccc3F)o2)c1 [Compound 96]	5.14
	Inactive	Nc1cccc(-c2cnc(Nc3ccccc3F)o2)c1 [Compound 97]	0.55
	Inactive	Cc1noc(-c2cccc(-c3cnc(N(C)c4ccc(F)cc4)o3)c2)n1 [Compound 98]	3.2
